# Experimental data from US20260109712A1, “RIFAMYCINS FOR NONTUBERCULOUS MYCOBACTERIA” (priority 2022, published 2026).
# Legend:
# Δarr M. abscessus = assay: MIC assay, isogenic arr-deleted strain; type: cell-based, Mycobacterium abscessus; details: Table 10
# In short: (§1)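 Two-fold, ten-point dilutions in 7H9 with 2% DMSO; mid-log culture diluted to OD600=0.1 (1×10^7 CFU/mL). Incubated 3 days at 37 °C, shaking 110 RPM; growth = Day 3 minus Day 0 OD600, expressed as percentage of drug-free growth and plotted against concentration. Two biological replicates.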
# [1] = Plasma protein binding assay (rapid equilibrium dialysis); type: in vitro ADME
# In short: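 Plasma was spiked to 10,000 ng/mL compound and dialysed against PBS by rapid equilibrium dialysis for 4 h at 37° C with shaking at 300 RPM. Plasma and buffer aliquots were matrix-matched 1:1 […] and quantified by LC-MS/MS.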
# M. abscessus ATCC 19977 = assay: MIC assay in 96-well plate format, wild-type strain; type: cell-based, Mycobacterium abscessus; details: for MICWT: Table 10; for MIC: Table 15, heterocyclic aromatic carbamates, read-out: WT Mab MIC
# In short: as §1
# Mycobacterium abscessus = assay: MIC against Mycobacterium abscessus (strain not given); type: cell-based; details: Table 13; read-out: Mab MIC
# [2] = Mouse pharmacokinetics studies; type: in vivo, CD-1 mice; details: for AUCp.o.: po
# Experimental: Blood was captured in CB300 blood collection tubes containing K2EDTA and stored on ice. Plasma was recovered after centrifugation and stored at −80° C. until analyzed by high pressure liquid chromatography coupled to tandem mass spectrometry (LC-MS/MS). Pharmacokinetic parameters were calculated using non-compartmental pharmacokinetic analysis. […] Extracts were vortexed for 5 minutes and centrifuged at 4000 RPM for 5 minutes. 75 μL of supernatant was transferred for LC-MS/MS analysis and diluted with 75 μL of Milli-Q deionized water. Rifabutin was purchased from Carbosynth. C25-desacetyl rifabutin and rifabutin-d7 were purchased from Toronto Research Chemical. Verapamil was purchased from Sigma-Aldrich. […] Multiple-reaction monitoring of parent/daughter transitions in electrospray positive-ionization mode was used to quantify all analytes. […] Data processing was performed using Analyst software (version 1.6.2; Applied Biosystems Sciex).
# [3] = AUC25-O-desacetyl RFB/AUCcompound × 100%, n.d. = undetectable
SMILES,MICΔorr (Δarr M. abscessus) [µM],ƒu [1] [%],plasma unbound fraction ([1]; plasma) [%],MICWT (M. abscessus ATCC 19977) [µM],MIC (Mycobacterium abscessus) [µM],further results
COc1ccc(C(=O)O[C@H]2[C@H](C)[C@H](O)[C@H](C)[C@@H](O)[C@@H](C)/C=C/C=C(\C)C(=O)NC3=C4NC5(CCN(CC(C)C)CC5)N=C4c4c(c(O)c(C)c5c4C(=O)[C@@](C)(O/C=C/[C@H](OC)[C@H]2C)O5)C3=O)cc1 [UMN10],0.065,0.02,0,0.06,0.06,–
CO[C@H]1/C=C/O[C@@]2(C)Oc3c(C)c(O)c4c(c3C2=O)C2=NC3(CCN(CC(C)C)CC3)NC2=C(NC(=O)/C(C)=C/C=C/[C@H](C)[C@H](O)[C@@H](C)[C@@H](O)[C@@H](C)[C@H](OC(=O)c2ccc(F)cc2)[C@@H]1C)C4=O [UMN11],0.069,0.02,0.02,0.13,0.13,–
CO[C@H]1/C=C/O[C@@]2(C)Oc3c(C)c(O)c4c(c3C2=O)C2=NC3(CCN(CC(C)C)CC3)NC2=C(NC(=O)/C(C)=C/C=C/[C@H](C)[C@H](O)[C@@H](C)[C@@H](O)[C@@H](C)[C@H](OC(=O)c2ccc(Cl)cc2)[C@@H]1C)C4=O [UMN12],0.22,0.01,0.01,0.13,0.13,–
CO[C@H]1/C=C/O[C@@]2(C)Oc3c(C)c(O)c4c(c3C2=O)C2=NC3(CCN(CC(C)C)CC3)NC2=C(NC(=O)/C(C)=C/C=C/[C@H](C)[C@H](O)[C@@H](C)[C@@H](O)[C@@H](C)[C@H](OC(=O)c2ccc(C(F)(F)F)cc2)[C@@H]1C)C4=O [UMN13],0.66,0,0,0.24,0.24,–
CO[C@H]1/C=C/O[C@@]2(C)Oc3c(C)c(O)c4c(c3C2=O)C2=NC3(CCN(CC(C)C)CC3)NC2=C(NC(=O)/C(C)=C/C=C/[C@H](C)[C@H](O)[C@@H](C)[C@@H](O)[C@@H](C)[C@H](OC(=O)Nc2ccccc2)[C@@H]1C)C4=O [UMN14],0.042,0.1,0.08,0.027,–,"MIC (M. abscessus ATCC 19977): 0.027 µM; ƒAUC/MIC ([2]; Table 18): 0.8; CL ([2]; mouse, in vivo): 2.40 mL/min/kg; F ([2]; mouse, in vivo): 38%; Vd ([2]; mouse, in vivo): 1.93 L/kg; AUCp.o. ([2]; mouse, in vivo): 25625 ng·h/mL"
CO[C@H]1/C=C/O[C@@]2(C)Oc3c(C)c(O)c4c(c3C2=O)C2=NC3(CCN(CC(C)C)CC3)NC2=C(NC(=O)/C(C)=C/C=C/[C@H](C)[C@H](O)[C@@H](C)[C@@H](O)[C@@H](C)[C@H](OC(=O)c2cccc(-c3ccccc3)c2)[C@@H]1C)C4=O [UMN18],1.05,0.01,0,1.10,1.1,–
CO[C@H]1/C=C/O[C@@]2(C)Oc3c(C)c(O)c4c(c3C2=O)C2=NC3(CCN(CC(C)C)CC3)NC2=C(NC(=O)/C(C)=C/C=C/[C@H](C)[C@H](O)[C@@H](C)[C@@H](O)[C@@H](C)[C@H](OC(=O)c2cccc(C(F)(F)F)c2)[C@@H]1C)C4=O [UMN19],0.36,0,0,0.48,0.48,–
COc1cccc(C(=O)O[C@H]2[C@H](C)[C@H](O)[C@H](C)[C@@H](O)[C@@H](C)/C=C/C=C(\C)C(=O)NC3=C4NC5(CCN(CC(C)C)CC5)N=C4c4c(c(O)c(C)c5c4C(=O)[C@@](C)(O/C=C/[C@H](OC)[C@H]2C)O5)C3=O)c1 [UMN26],0.13,0.02,0.02,0.13,0.13,–
CO[C@H]1/C=C/O[C@@]2(C)Oc3c(C)c(O)c4c(c3C2=O)C2=NC3(CCN(CC(C)C)CC3)NC2=C(NC(=O)/C(C)=C/C=C/[C@H](C)[C@H](O)[C@@H](C)[C@@H](O)[C@@H](C)[C@H](OC(=O)c2cccc(Cl)c2)[C@@H]1C)C4=O [UMN27],0.13,0,0,0.14,0.14,–
CO[C@H]1/C=C/O[C@@]2(C)Oc3c(C)c(O)c4c(c3C2=O)C2=NC3(CCN(CC(C)C)CC3)NC2=C(NC(=O)/C(C)=C/C=C/[C@H](C)[C@H](O)[C@@H](C)[C@@H](O)[C@@H](C)[C@H](OC(=O)c2ccc(-c3ccccc3)cc2)[C@@H]1C)C4=O [UMN28],1.00,0,0,0.85,0.85,–
CO[C@H]1/C=C/O[C@@]2(C)Oc3c(C)c(O)c4c(c3C2=O)C2=NC3(CCN(CC(C)C)CC3)NC2=C(NC(=O)/C(C)=C/C=C/[C@H](C)[C@H](O)[C@@H](C)[C@@H](O)[C@@H](C)[C@H](OC(=O)c2ccncc2)[C@@H]1C)C4=O [UMN47],0.017,2.0,2.00,0.017,0.017,–
CO[C@H]1/C=C/O[C@@]2(C)Oc3c(C)c(O)c4c(c3C2=O)C2=NC3(CCN(CC(C)C)CC3)NC2=C(NC(=O)/C(C)=C/C=C/[C@H](C)[C@H](O)[C@@H](C)[C@@H](O)[C@@H](C)[C@H](OC(=O)Nc2nncs2)[C@@H]1C)C4=O [UMN69],0.027,5.3,5.30,0.026,–,"MIC (M. abscessus ATCC 19977): 0.026 µM; ƒAUC/MIC ([2]; Table 18): 26.5; CL ([2]; mouse, in vivo): 6.19 mL/min/kg; F ([2]; mouse, in vivo): 45%; Vd ([2]; mouse, in vivo): 1.14 L/kg; AUCp.o. ([2]; mouse, in vivo): 12103 ng·h/mL"
CO[C@H]1/C=C/O[C@@]2(C)Oc3c(C)c(O)c4c(c3C2=O)C2=NC3(CCN(CC(C)C)CC3)NC2=C(NC(=O)/C(C)=C/C=C/[C@H](C)[C@H](O)[C@@H](C)[C@@H](O)[C@@H](C)[C@H](OC(=O)c2ncccn2)[C@@H]1C)C4=O [UMN92],–,9.8,–,–,0.057,–
CO[C@H]1/C=C/O[C@@]2(C)Oc3c(C)c(O)c4c(c3C2=O)C2=NC3(CCN(CC(C)C)CC3)NC2=C(NC(=O)/C(C)=C/C=C/[C@H](C)[C@H](O)[C@@H](C)[C@@H](O)[C@@H](C)[C@H](OC(=O)c2cncs2)[C@@H]1C)C4=O [UMN93],–,1.6,–,–,0.057,–
CO[C@H]1/C=C/O[C@@]2(C)Oc3c(C)c(O)c4c(c3C2=O)C2=NC3(CCN(CC(C)C)CC3)NC2=C(NC(=O)/C(C)=C/C=C/[C@H](C)[C@H](O)[C@@H](C)[C@@H](O)[C@@H](C)[C@H](OC(=O)Nc2ccncc2)[C@@H]1C)C4=O [UMN105],–,2.0,–,–,–,"MIC (M. abscessus ATCC 19977): 0.025 µM; CL ([2]; mouse, in vivo): 7.57 mL/min/kg; F ([2]; mouse, in vivo): 63%; Vd ([2]; mouse, in vivo): 3.78 L/kg; ƒAUC/MIC ([2]; mouse, in vivo): 9.4; AUCp.o. ([2]; mouse, in vivo): 14210 ng·h/mL"
CO[C@H]1/C=C/O[C@@]2(C)Oc3c(C)c(O)c4c(c3C2=O)C2=NC3(CCN(CC(C)C)CC3)NC2=C(NC(=O)/C(C)=C/C=C/[C@H](C)[C@H](O)[C@@H](C)[C@@H](O)[C@@H](C)[C@H](OC(=O)c2cccnn2)[C@@H]1C)C4=O [UMN111],–,12.7,–,–,0.051,–
CO[C@H]1/C=C/O[C@@]2(C)Oc3c(C)c(O)c4c(c3C2=O)C2=NC3(CCN(CC(C)C)CC3)NC2=C(NC(=O)/C(C)=C/C=C/[C@H](C)[C@H](O)[C@@H](C)[C@@H](O)[C@@H](C)[C@H](OC(=O)Nc2ccccc2)[C@@H]1C)C4=O [drawing 220],–,–,–,–,–,"plasma unbound fraction ([1]; Table 12): 0.0008%; C-25 deacylation i.v. [2, 3]: 0.08%; C-25 deacylation p.o. [2, 3]: 0.001%; CL ([2]; Table 12): 2.4 mL/min/kg; Vd ([2]; Table 12): 1.9 L/kg; t1/2 ([2]; Table 12): 9.3 h; ƒAUC/MIC ([2]; p.o. doses of 10 mg/kg, Table 12): 0.43"
